Laboratory results taken from ChEMBL document CHEMBL4376808, “Triphenylphosphonium Analogues of Betulin and Betulinic Acid with Biological Activity: A Comprehensive Review” (J Nat Prod, 2019).

Key:
Assay type in all cases: functional, cell-based
HCT-116 = assay: Cytotoxic activity in human HCT116 cells assessed as reduction in cell viability
A549 = assay: Cytotoxic activity in human A549 cells assessed as reduction in cell viability
MCF7 = assay: Cytotoxic activity in human MCF7 cells assessed as reduction in cell viability

C=C(C)[C@@H]1CC[C@]2(C(=O)OCc3cn(-c4cccc(C(=O)O)c4)nn3)CC[C@]3(C)[C@H](CC[C@@H]4[C@@]5(C)CCC(=O)C(C)(C)[C@@H]5CC[C@]43C)[C@@H]12 gave an IC50 (HCT-116) of 4 µM.

In the case of C=C(C)[C@@H]1CC[C@]2(C(=O)OCc3cn(-c4ccc5c(c4)OCO5)nn3)CC[C@]3(C)[C@H](CC[C@@H]4[C@@]5(C)CCC(=O)C(C)(C)[C@@H]5CC[C@]43C)[C@@H]12, the IC50 (A549) is reported as 5 µM.

Compound C=C(C)[C@@H]1CC[C@]2(C(=O)OCc3cn(-c4cccc(O)c4)nn3)CC[C@]3(C)[C@H](CC[C@@H]4[C@@]5(C)CCC(=O)C(C)(C)[C@@H]5CC[C@]43C)[C@@H]12 has an IC50 (A549) of 3.7 µM.

With C=C(C)[C@@H]1CC[C@]2(C(=O)O)CC[C@]3(C)[C@H](CC[C@@H]4[C@@]5(C)CC/C(=N/Nc6ccc([N+](=O)[O-])cc6[N+](=O)[O-])C(C)(C)[C@@H]5CC[C@]43C)[C@@H]12 the IC50 (MCF7) was 8.2 µM.

C=C(C)[C@@H]1CC[C@]2(C(=O)O)CC[C@]3(C)[C@H](CC[C@@H]4[C@@]5(C)CC[C@H](C#CCN6CCCC6)C(C)(C)[C@@H]5CC[C@]43C)[C@@H]12 was tested, and the IC50 (MCF7) was 5.5 µM.

C=C(C)[C@@H]1CC[C@]2(C(=O)OCc3cn(-c4ccc(O)c(C)c4)nn3)CC[C@]3(C)[C@H](CC[C@@H]4[C@@]5(C)CCC(=O)C(C)(C)[C@@H]5CC[C@]43C)[C@@H]12 was tested, and the IC50 (HCT-116) was 3.5 µM.

C=C(C)[C@@H]1CC[C@]2(C(=O)O)CC[C@]3(C)[C@H](CC[C@@H]4[C@@]5(C)CC[C@H](OC(C)=O)C(C)(C)[C@@H]5CC[C@]43C)[C@@H]12 showed an IC50 (HCT-116) of 9.6 µM.
